According to patent US11186874B2, “ERK1 and ERK2 mutations that confer resistance to MAPK pathway inhibitors” (Dana-Farber Cancer Institute, Inc., priority 2014, dated 2021):

How the values were obtained:
ERK1 [1] = target: T1, ERK1 (Homo sapiens, UniProt P27361, Y148H); assay: IP kinase assay, V5-tagged ERK1, phosphorylation of recombinant ELK-1 peptide; format: biochemical; settings: ERK1^Y148; trametinib 3 nM, 4 h
T1 construct: made in house; host or cells: A375 cells, transient transfection; captured on V5-agarose beads
T1 sequence (P27361 2-379 Y148H): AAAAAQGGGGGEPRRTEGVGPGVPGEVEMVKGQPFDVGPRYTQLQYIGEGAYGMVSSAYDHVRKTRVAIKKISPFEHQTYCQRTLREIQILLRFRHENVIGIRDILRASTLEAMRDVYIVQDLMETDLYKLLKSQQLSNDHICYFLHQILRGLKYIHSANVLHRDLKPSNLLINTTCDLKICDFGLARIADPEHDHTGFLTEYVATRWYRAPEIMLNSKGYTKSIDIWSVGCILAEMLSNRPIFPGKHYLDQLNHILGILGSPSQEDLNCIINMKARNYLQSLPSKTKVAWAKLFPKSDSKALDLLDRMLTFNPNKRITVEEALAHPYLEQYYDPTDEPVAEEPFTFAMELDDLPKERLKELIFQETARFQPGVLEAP

ERK1 [2] = assay: as above; format: biochemical, human; settings: ERK1 alleles; trametinib 3 nM, 4 h, added to cells prior to harvest
ERK2 [3] = assay: IP kinase assay, V5-tagged ERK2, phosphorylation of recombinant ELK-1 peptide; format: biochemical, human; settings: for ERK kinase activity of ERK inhibitor resistance alleles in the presence of inhibitor: ERK2 resistance alleles, FIG. 3B, FIG. 10B
Description: (§1) Phosphorylation of ELK-1 (at serine 383) was measured by Western blotting.
(§2) ERK1 and ERK2 open constructs were transferred into DEST40 (C-terminal V5 tag) vector (Invitrogen) using LR clonase II. A375 cells were transiently transfected with V5-tagged ERK1 or ERK2 constructs using X-tremeGENE HP (Roche). […] Reactions were stopped with the addition on 3× SDS loading buffer. Samples were boiled and supernatant was run on SDS-PAGE gel for western blotting.

ERK1/2 = assay: Western blotting of ERK signaling in A375 cells expressing ERK1/2 alleles; format: cell-based; settings: for ERK signaling (RSK phosphorylation, DUSP6, cyclin D1) in the presence of ERK inhibitor: ten ERK inhibitor resistance alleles, DOX, 24 h
Description: Cells were exposed to DOX with or without MAPK inhibitor at the same doses used in the screen for 24 h, then harvested in RIPA buffer, and run on SDS-PAGE. Proteins were transferred to PVDF membranes and analyzed using the following antibodies phosphoERK1/2, ERK1/2, phosphoELK-1 S383 (Santa Cruz), phosphoRSK (S380), RSK, tubulin, DUSP6 (Cell Signaling), cyclin D1 (Thermo Scientific), and V5 (Abcam). Relative expression was calculated by comparing densities of bands of phoshoELK-1 to total ERK (or V5). Values were normalized to untreated WT, which was set at 1.

A375 cells = assay: MTS growth assay of A375 cells expressing DOX-inducible ERK1/2 alleles in the presence of MAPK pathway inhibitors; format: cell-based
Text: To verify their resistance effects, we engineered the relevant mutations for highly mutated alleles or for low frequency alleles that were analogous between ERK1 and ERK2 within the coding sequence of ERK1 or ERK2 by site directed mutagenesis in the doxycycline-inducible vector. […] Here, we defined validation as a >4-fold increase in cell growth conferred by DOX-induced mutant ERK expression compared to control cells cultured without DOX (FIG. 2A, Table 4, FIG. 8G).
A375, WM266.4, or SKmel19 cells were plated in 96-well plates, with six replicates for each drug. Drugs were added the next day with or without DOX. Cell growth was analyzed 72-96 hours later by MTS assay (Promega). The inhibitor concentrations were the same as the screen. […] Growth was normalized to DMSO, NO-DOX controls, and graphed as percent growth. Heatmaps were created from growth assays using GENE-E (Available on the World Wide Web at broadinstitute.org/cancer/software/GENE-E/download.html). For some growth assays, a half-log dose response curve was generated to determine sensitivity. The concentration of DMSO was 0.1%.

ERK2 [4] = target: T2, ERK2 (Homo sapiens, UniProt P28482); assay: IP kinase assay, V5-tagged ERK2, phosphorylation of recombinant ELK-1 peptide; format: biochemical; settings: wild type ERK2; VX-11e 0.1 μM added during the kinase assay
T2 construct: made in house; host or cells: A375 cells, transient transfection; captured on V5-agarose beads
T2 sequence (P28482 2-360): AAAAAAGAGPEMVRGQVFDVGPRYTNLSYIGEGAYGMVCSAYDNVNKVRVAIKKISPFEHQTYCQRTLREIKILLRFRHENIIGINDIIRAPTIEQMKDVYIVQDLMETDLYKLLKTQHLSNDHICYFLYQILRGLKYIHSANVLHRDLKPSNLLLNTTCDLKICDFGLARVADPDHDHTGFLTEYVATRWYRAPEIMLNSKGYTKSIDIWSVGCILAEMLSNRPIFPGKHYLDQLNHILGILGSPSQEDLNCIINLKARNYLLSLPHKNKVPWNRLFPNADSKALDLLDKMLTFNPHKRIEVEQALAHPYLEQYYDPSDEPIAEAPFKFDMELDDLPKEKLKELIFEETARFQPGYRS
Description: as §1, §2

Structure (SMILES) | residual kinase activity of common docking domain mutants compared to other alleles (ERK1 [1]) | ERK kinase activity (ELK-1 peptide phosphorylation) of RAF/MEK inhibitor resistant alleles in the presence of MEK inhibitor (ERK1 [2]) | residual kinase activity of common docking domain mutants compared to other alleles (ERK2 [3]; ERK2^Y131, ERK2^D321G, ERK2^E322K, trametinib 3 nM, 4 h) | ERK kinase activity (ELK-1 peptide phosphorylation) of RAF/MEK inhibitor resistant alleles in the presence of MEK inhibitor (ERK2 [3]; ERK2 alleles, trametinib 3 nM, 4 h, added to cells prior to harvest) | ERK signaling (RSK phosphorylation, DUSP6, cyclin D1) in the presence of ERK inhibitor (ERK1/2; A375) | ERK phosphorylation (ERK1/2; any context examined) | increase in cell growth conferred by DOX-induced mutant ERK expression compared to control cells cultured without DOX (A375 cells; 16 validated of 20 candidate ERK1/2 resistance alleles, VX-11e 2 μM) | effect on growth in the presence of the ERK inhibitor (A375 cells; kinase-dead ERK1 and ERK2 and GFP, VX-11e 2 μM) | growth advantage in the presence of the ERK inhibitor (A375 cells; wild-type ERK1 and ERK2, VX-11e 2 μM) | ERK kinase activity of ERK inhibitor resistance alleles in the presence of inhibitor (ERK2 [3]) | ELK-1 phosphorylation (serine 383) induced by wild type ERK2 (ERK2 [4]) | phosphorylation of ERK2-resistant alleles (ERK1/2; A375, ERK inhibitor resistant ERK2 alleles) | phosphorylation of wild type ERK1/2 (ERK1/2; A375, wild type ERK1/2) | growth advantage (A375 cells; ERK1^Y53H, 0.5 μM SCH772984) | increase in cell growth (A375 cells; ERK1^Y53H, 1 μM SCH772984) | increase in cell growth with allele expression (A375 cells; selected VX-11e-resistant ERK1 and ERK2 alleles, SCH772984)
CC(=O)Nc1cccc(-n2c(=O)n(C3CC3)c(=O)c3c(Nc4ccc(I)cc4F)n(C)c(=O)c(C)c32)c1 [trametinib] | diminished residual kinase activity | maintained ERK kinase activity | diminished residual kinase activity | maintained ERK kinase activity |  |  |  |  |  |  |  |  |  |  |  | 
Cc1cnc(Nc2ccc(F)cc2Cl)nc1-c1c[nH]c(C(=O)N[C@H](CO)c2cccc(Cl)c2)c1 [VX-11e] |  |  |  |  | sustained ERK signaling | no effect | > 4 fold | no effect | 1.5 fold | maintained ERK kinase activity | completely blocked |  |  |  |  | 
O=C(Nc1ccc2[nH]nc(-c3ccncc3)c2c1)[C@@H]1CCN(CC(=O)N2CCN(c3ccc(-c4ncccn4)cc3)CC2)C1 [SCH772984] |  |  |  |  | maintained |  |  |  |  | maintained ERK kinase activity |  | no effect | decreased | 5 fold | 2.5 fold | over 4 fold
